Data taken from US20260092179A1, “GENETICALLY MODIFIED HOST CELLS PRODUCING VIOLACEIN, ANALOGUES, AND DERIVATIVES THEREOF” (OCTARINE BIO APS, priority 2022, published 2026).

Key:
[1] = Free radical scavenging ability of dyed Nylon 6,6 fabric (DPPH); format: biochemical; settings: dyed Nylon 6,6 fabric strip
Protocol: Violacein is reported as being a potent antioxidant able to effectively scavenge free radicals. […] To test this, 1.5×1.5 cm dyed Nylon 6,6 fabric strips were incubated in the dark at room temperature for 1 h in 5 mL of a 5×10^−5 M DPPH free radical solution in 100% ethanol. Undyed Nylon 6,6 fabric strips were included as a negative control. After 1 h absorbance was measured at 517 nm and % scavenging ability calculated as above.

[2] = UV stability of dyed fabrics (colour fastness, ΔE); format: physicochemical; settings: for ΔE: before vs after UV lamp, room temperature, 1 h
Protocol: (§1) In order to assess the stability and colour fastness of violacein and violacein derivatives dyed onto fabrics, dyed fabrics were subjected to a number of conditions. Fabrics were dyed according to Example 18 and colour coordinates and colour change before and after exposure to a given condition were determined as described in Example 18. To measure temperature stability, fabrics were incubated in an oven set to 80° c. for 4 h. To measure stability under acid and alkaline conditions, fabrics were fully submerged in water solutions set to pH 8 with NaOH and pH 5 with HCl and incubated at room temperature for 30 minutes. Fabrics were then incubated at 37° c. for 4 h. To measure stability during laundering, fabrics were washed at 30° c. under the “mix” setting of a Siemens IQ300 washing machine, then dried in a Siemens IQ300 dryer until dry. To measure artificial light stability, fabrics were placed under an LED lamp at room temperature for 16 h. To measure UV light stability, fabrics were placed under a UV lamp at room temperature for 1 h.

[3] = Stability during laundering of dyed fabrics (colour fastness, ΔE); format: physicochemical; settings: washed at 30° c.
Protocol: as §1

[4] = Temperature stability of dyed fabrics (colour fastness, ΔE); format: physicochemical; settings: oven 80° c. for 4 h; for ΔE: before and after the stability test
Protocol: as §1

[5] = Acrylic, after test (UV lamp, room temperature, 1 h)
[6] = Bleached cotton, after test (UV lamp, room temperature, 1 h)
[7] = Diacetate, after test (UV lamp, room temperature, 1 h)
[8] = Nylon 6,6, after test (UV lamp, room temperature, 1 h)
[9] = Polyester, after test (UV lamp, room temperature, 1 h)
[10] = Wool, after test (UV lamp, room temperature, 1 h)

O=C1N=C(c2c[nH]c3ccc(O)cc23)C=C1c1c[nH]c2ccccc12 [proviolacein]
OD517 ([1]; 1 h in the dark in 5×10^−5 M DPPH in 100% ethanol): 1.88
Scavenging ability % ([1]; 1 h in the dark in 5×10^−5 M DPPH, vs undyed control): 17.27%
L [2, 5]: 57.07
a [2, 5]: 0.02
b [2, 5]: 1.94
L ([2]; Acrylic, before test): 57.31
a ([2]; Acrylic, before test): −0.99
b ([2]; Acrylic, before test): 2.73
ΔE ([2]; Acrylic): 1.30
L [2, 6]: 64.92
a [2, 6]: 1.27
b [2, 6]: 3.29
L ([2]; Bleached cotton, before test): 64.65
a ([2]; Bleached cotton, before test): 0.4
b ([2]; Bleached cotton, before test): 2.43
ΔE ([2]; Bleached cotton): 1.25
L [2, 7]: 61.92
a [2, 7]: 3.89
b [2, 7]: 6.22
L ([2]; Diacetate, before test): 61.25
a ([2]; Diacetate, before test): 3.87
b ([2]; Diacetate, before test): 4.46
ΔE ([2]; Diacetate): 1.88
L [2, 8]: 57.07
a [2, 8]: 0.02
b [2, 8]: 1.94
L ([2]; Nylon 6,6, before test): 57.31
a ([2]; Nylon 6,6, before test): −0.99
b ([2]; Nylon 6,6, before test): 2.73
ΔE ([2]; Nylon 6,6): 1.30
L [2, 9]: 65.53
a [2, 9]: −1.02
b [2, 9]: 0.99
L ([2]; Polyester, before test): 64.26
a ([2]; Polyester, before test): −2.11
b ([2]; Polyester, before test): 1.21
ΔE ([2]; Polyester): 1.69
L [2, 10]: 62.87
a [2, 10]: −0.07
b [2, 10]: 5.48
L ([2]; Wool, before test): 62.43
a ([2]; Wool, before test): −0.15
b ([2]; Wool, before test): 5.23
ΔE ([2]; Wool): 0.51
L ([3]; Acrylic, After test): 67.87
a ([3]; Acrylic, After test): −1.12
b ([3]; Acrylic, After test): 2.23
L ([3]; Acrylic, Before test): 58.81
a ([3]; Acrylic, Before test): 0.01
b ([3]; Acrylic, Before test): 1.72
ΔE ([3]; Acrylic, before and after the stability test): 9.14
L ([3]; Bleached cotton, After test): 73
a ([3]; Bleached cotton, After test): 0.55
b ([3]; Bleached cotton, After test): 1.68
L ([3]; Bleached cotton, Before test): 65.1
a ([3]; Bleached cotton, Before test): 1.34
b ([3]; Bleached cotton, Before test): 3.23
ΔE ([3]; Bleached cotton, before and after the stability test): 8.09
L ([3]; Diacetate, After test): 68.23
a ([3]; Diacetate, After test): 3.76
b ([3]; Diacetate, After test): 5.07
L ([3]; Diacetate, Before test): 62.86
a ([3]; Diacetate, Before test): 4.96
b ([3]; Diacetate, Before test): 5.09
ΔE ([3]; Diacetate, before and after the stability test): 5.50
L ([3]; Nylon 6,6, After test): 56.92
a ([3]; Nylon 6,6, After test): −1.51
b ([3]; Nylon 6,6, After test): −3.83
L ([3]; Nylon 6,6, Before test): 50.65
a ([3]; Nylon 6,6, Before test): −1.57
b ([3]; Nylon 6,6, Before test): −2.84
ΔE ([3]; Nylon 6,6, before and after the stability test): 6.35
L ([3]; Polyester, After test): 72.82
a ([3]; Polyester, After test): −0.46
b ([3]; Polyester, After test): 0.54
L ([3]; Polyester, Before test): 65.21
a ([3]; Polyester, Before test): −1.18
b ([3]; Polyester, Before test): 1.47
ΔE ([3]; Polyester, before and after the stability test): 7.70
L ([3]; Wool, After test): 72.54
a ([3]; Wool, After test): −1.14
b ([3]; Wool, After test): 5.37
L ([3]; Wool, Before test): 64.87
a ([3]; Wool, Before test): 0.09
b ([3]; Wool, Before test): 5
ΔE ([3]; Wool, before and after the stability test): 7.78
L ([4]; Acrylic, After test): 58.24
a ([4]; Acrylic, After test): −0.6
b ([4]; Acrylic, After test): 1.57
L ([4]; Acrylic, Before test): 56.45
a ([4]; Acrylic, Before test): −2.01
b ([4]; Acrylic, Before test): 2.1
ΔE ([4]; Acrylic): 2.34
L ([4]; Bleached cotton, After test): 61.95
a ([4]; Bleached cotton, After test): 1.2
b ([4]; Bleached cotton, After test): 2.46
L ([4]; Bleached cotton, Before test): 62.46
a ([4]; Bleached cotton, Before test): 0.6
b ([4]; Bleached cotton, Before test): 2.51
ΔE ([4]; Bleached cotton): 0.79
L ([4]; Diacetate, After test): 59.98
a ([4]; Diacetate, After test): 5.39
b ([4]; Diacetate, After test): 6.04
L ([4]; Diacetate, Before test): 61.94
a ([4]; Diacetate, Before test): 4.17
b ([4]; Diacetate, Before test): 5.25
ΔE ([4]; Diacetate): 2.44
L ([4]; Nylon 6,6, After test): 49.91
a ([4]; Nylon 6,6, After test): −1.59
b ([4]; Nylon 6,6, After test): −4
L ([4]; Nylon 6,6, Before test): 50.83
a ([4]; Nylon 6,6, Before test): −2.09
b ([4]; Nylon 6,6, Before test): −3.92
ΔE ([4]; Nylon 6,6): 1.05
L ([4]; Polyester, After test): 62.77
a ([4]; Polyester, After test): −0.52
b ([4]; Polyester, After test): 1.37
L ([4]; Polyester, Before test): 64.1
a ([4]; Polyester, Before test): −1.81
b ([4]; Polyester, Before test): 1.31
ΔE ([4]; Polyester): 1.85
L ([4]; Wool, After test): 64.23
a ([4]; Wool, After test): 0.18
b ([4]; Wool, After test): 4.96
L ([4]; Wool, Before test): 65.67
a ([4]; Wool, Before test): −0.22
b ([4]; Wool, Before test): 4.25
ΔE ([4]; Wool): 1.65
